Results reported in patent US20240124408A1 (Sanofi, priority 2020, published 2024).
Counter-ions that a name gives are not always drawn.

What was measured:
Assay type in all cases: cell-based
human TRPM8 [1] = biological target: T1, human TRPM8 (Homo sapiens, UniProt Q7Z2W7); assay: In vitro human TRPM8 fluorescence calcium flux assay (recombinant CHO cells, Fluo4-AM, FDSS6000); conditions: recombinant CHO cells expressing human TRPM8; menthol-related EC50, normalized to 100 μM menthol
T1 construct: expressed in transfected cells; host or cells: CHO (p658 mammalian expression vector)
T1 sequence (Q7Z2W7 whole entry): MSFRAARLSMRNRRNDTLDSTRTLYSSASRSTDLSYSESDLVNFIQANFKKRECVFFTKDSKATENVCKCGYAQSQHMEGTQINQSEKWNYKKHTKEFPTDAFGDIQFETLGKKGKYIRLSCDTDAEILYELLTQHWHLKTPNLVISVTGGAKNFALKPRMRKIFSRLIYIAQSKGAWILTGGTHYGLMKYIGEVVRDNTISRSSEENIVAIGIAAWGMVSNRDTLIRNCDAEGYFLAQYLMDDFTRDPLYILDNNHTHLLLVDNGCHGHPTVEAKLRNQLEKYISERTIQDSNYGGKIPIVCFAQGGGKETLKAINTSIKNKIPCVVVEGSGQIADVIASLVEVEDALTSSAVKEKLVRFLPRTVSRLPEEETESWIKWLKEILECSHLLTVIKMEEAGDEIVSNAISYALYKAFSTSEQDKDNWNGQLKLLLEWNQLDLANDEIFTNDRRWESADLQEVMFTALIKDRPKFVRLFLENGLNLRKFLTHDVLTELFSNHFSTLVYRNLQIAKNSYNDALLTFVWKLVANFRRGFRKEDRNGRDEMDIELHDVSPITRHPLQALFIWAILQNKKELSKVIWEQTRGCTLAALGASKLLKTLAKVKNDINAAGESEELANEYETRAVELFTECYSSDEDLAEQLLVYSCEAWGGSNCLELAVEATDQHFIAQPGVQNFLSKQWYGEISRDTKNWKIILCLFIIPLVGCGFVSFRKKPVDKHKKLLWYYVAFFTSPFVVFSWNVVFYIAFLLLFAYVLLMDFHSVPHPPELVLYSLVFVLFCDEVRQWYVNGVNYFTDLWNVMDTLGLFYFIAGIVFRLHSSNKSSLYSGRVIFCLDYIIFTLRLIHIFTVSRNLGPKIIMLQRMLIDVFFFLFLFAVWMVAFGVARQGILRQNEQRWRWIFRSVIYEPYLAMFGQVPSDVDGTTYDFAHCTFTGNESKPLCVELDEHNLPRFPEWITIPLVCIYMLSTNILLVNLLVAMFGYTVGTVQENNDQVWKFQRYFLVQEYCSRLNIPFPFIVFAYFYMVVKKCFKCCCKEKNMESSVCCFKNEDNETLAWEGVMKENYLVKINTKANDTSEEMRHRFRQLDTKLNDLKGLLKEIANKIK
In short: (§1)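 CHO cells stably expressing pig or human TRPM8, loaded with 2 μM Fluo4-AM in HBSS/20 mM HEPES/0.1% BSA/2.5 mM probenecid for 1 h at RT. Intracellular calcium read kinetically for 3 min after compound addition. EC50 from sixteen-point curves, normalized to 100 μM menthol maximal response.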

pig TRPM8 [2] = biological target: T2, pig TRPM8 (Sus scrofa, UniProt F1SM15); assay: In vitro pig TRPM8 fluorescence calcium flux assay (recombinant CHO cells, Fluo4-AM, FDSS6000); conditions: recombinant CHO cells expressing pig TRPM8; menthol-related EC50, normalized to 100 μM menthol
T2 construct: expressed in transfected cells; host or cells: CHO (pcDNA5/FRT/TO vector; hygromycin B and blasticidin selection)
T2 sequence (F1SM15 1-1104): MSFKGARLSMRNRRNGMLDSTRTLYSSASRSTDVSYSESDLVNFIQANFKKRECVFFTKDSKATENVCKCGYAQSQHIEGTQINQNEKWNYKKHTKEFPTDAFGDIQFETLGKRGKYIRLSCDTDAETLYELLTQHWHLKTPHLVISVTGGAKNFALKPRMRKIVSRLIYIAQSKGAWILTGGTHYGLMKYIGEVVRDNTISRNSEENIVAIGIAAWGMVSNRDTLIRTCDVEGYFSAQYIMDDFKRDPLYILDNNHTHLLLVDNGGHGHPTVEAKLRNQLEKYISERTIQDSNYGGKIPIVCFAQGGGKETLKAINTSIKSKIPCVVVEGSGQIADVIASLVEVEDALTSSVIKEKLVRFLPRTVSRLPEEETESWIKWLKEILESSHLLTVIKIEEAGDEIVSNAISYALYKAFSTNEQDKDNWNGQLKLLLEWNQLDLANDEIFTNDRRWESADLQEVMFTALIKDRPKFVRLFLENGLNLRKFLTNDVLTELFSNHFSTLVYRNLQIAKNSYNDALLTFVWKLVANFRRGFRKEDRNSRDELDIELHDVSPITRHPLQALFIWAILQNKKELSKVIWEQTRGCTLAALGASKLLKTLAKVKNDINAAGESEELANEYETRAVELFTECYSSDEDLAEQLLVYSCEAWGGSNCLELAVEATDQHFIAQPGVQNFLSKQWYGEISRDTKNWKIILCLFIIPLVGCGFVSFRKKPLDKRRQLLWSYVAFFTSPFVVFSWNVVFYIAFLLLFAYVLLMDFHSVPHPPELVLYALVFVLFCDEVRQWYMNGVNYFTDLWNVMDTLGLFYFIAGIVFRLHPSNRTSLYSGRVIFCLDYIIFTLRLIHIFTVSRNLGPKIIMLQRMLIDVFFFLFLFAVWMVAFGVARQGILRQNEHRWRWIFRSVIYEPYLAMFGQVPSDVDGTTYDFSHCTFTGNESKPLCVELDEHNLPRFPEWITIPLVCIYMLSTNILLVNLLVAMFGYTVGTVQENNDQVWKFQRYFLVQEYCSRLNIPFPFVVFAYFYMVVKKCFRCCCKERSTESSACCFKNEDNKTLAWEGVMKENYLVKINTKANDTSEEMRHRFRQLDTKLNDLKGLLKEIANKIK
In short: as §1

human TRPM8 [3] = biological target: T1, human TRPM8; assay: In vitro human TRPM8 automated patch-clamp assay (SyncroPatch 384PE, CHO cells); conditions: CHO cells expressing human TRPM8, 28° C.
Procedure: (§2) In Vitro Pig and Human TRPM8 Automated Patch-Clamp Assays
(§3) Automated whole-cell recordings of compound effects were performed on the SyncroPatch 384PE (Nanion Technologies, Munich, Germany) incorporated into a Biomek FX pipetting robot (Beckman Coulter, Jersey City, NJ, USA) using the same engineered CHO cell lines expressing human or pig TRPM8 channels. Data acquisition and analysis were performed with the proprietary software PatchControl 384 and DataControl 384, respectively (Nanion Technologies, Munich, Germany). All recordings were carried out using planar borosilicate glass patch clamp chips in a 384-microtiter plate format with patch hole resistances of 2-4 MO. For recordings, standard intracellular solution was used containing (in mM): 130 KF, 4 NaCl, 1 MgCl2, 0.5 CaCl2, 10 HEPES and 10 EGTA/KOH (pH 7.2) and standard extracellular solution contained in mM: 150 NaCl, 4 KCl, 0.5 CaCl2, 1 MgCl2 and 10 HEPES (pH 7.3).
(§4) Prior to the electrophysiological measurements, cells were harvested using Accutase (GIBCO, Fisher Scientific) and resuspended in warmed extracellular solution. The cell suspension was kept in the dedicated cell reservoir at 28° C. at a 1 million/ml cell density and shaken at 500 rounds per min (rpm). Experiments were performed at 28° C. throughout. Cells were distributed in high resistance 4-holes-per-well Nanion chips where they were caught on the patch holes by application of a −80 mbar pressure. The cell membrane was ruptured to obtain the whole-cell configuration with a pressure pulse of −250 mbar for 2 seconds. Voltage protocols were constructed using PatchControl 384. The cells were held at a holding potential of −60 mV and TRPM8 currents were recorded using a ramp protocol from −80 to +80 mV every 5 seconds before and after compound addition. Resulting currents were recorded at both −80 and +80 mV and current kinetics were exported and analyzed. From each plate, control wells with 200 μM menthol were recorded to validate the assay. One concentration of compound was applied to each of the other wells. For each concentration, compound response was determined by subtracting the baseline current recorded before compound addition from the maximum peak elicited currents obtained after compound addition. Then, each compound response was normalized to control condition without compound and maximum current (Emax) obtained for each compound. Nanion DataControl 384 software plotted current response for each compound concentration and was able to calculate an EC50 value for each active compound.

pig TRPM8 [4] = biological target: T2, pig TRPM8; assay: In vitro pig TRPM8 automated patch-clamp assay (SyncroPatch 384PE, CHO cells); conditions: CHO cells expressing pig TRPM8, 28° C.
Procedure: as §2, §3, §4

CC(C)[C@@H]1CC[C@@H](C)C[C@@]1(O)C(=O)NCC(NC(=O)[C@H](C)N)c1ccccc1 (single isomer, unassigned) [Example 182]
EC50 (human TRPM8 [1]): 0.0037 µM | EC50 (pig TRPM8 [2]): 0.0038 µM | EC50 (human TRPM8 [3]): 0.066 µM | EC50 (pig TRPM8 [4]): 0.052 µM

CC(C)[C@@H]1CC[C@@H](C)C[C@@]1(O)C(=O)NCC(NC(=O)CN)c1ccccc1 (single isomer, unassigned) [Example 183]
EC50 (human TRPM8 [1]): 0.0027 µM | EC50 (pig TRPM8 [2]): 0.0028 µM | EC50 (human TRPM8 [3]): 0.12 µM | EC50 (pig TRPM8 [4]): 0.02 µM

CC(C)[C@@H]1CC[C@@H](C)C[C@@]1(O)C(=O)NCC(NC(=O)CN)c1ccccc1 (single isomer, unassigned) [Example 184]
EC50 (human TRPM8 [1]): 0.0145 µM | EC50 (pig TRPM8 [2]): 0.0281 µM | EC50 (human TRPM8 [3]): 0.6 µM | EC50 (pig TRPM8 [4]): 0.567 µM

CC(C)[C@@H]1CC[C@@H](C)C[C@@]1(O)C(=O)NCC(=O)c1ccccc1 [Example 2, (1S,2S,5R)-1-hydroxy-2-isopropyl-5-methyl-N-(2-oxo-2-phenylethyl)cyclohexane-1-carboxamide]
EC50 (human TRPM8 [1]): 0.0012 µM | EC50 (pig TRPM8 [2]): 0.0007 µM | EC50 (human TRPM8 [3]): 0.45 µM | EC50 (pig TRPM8 [4]): 0.596 µM

CC(=O)O[C@H](CNC(=O)[C@]1(O)C[C@H](C)CC[C@H]1C(C)C)c1ccccc1 [Example 3, (S)-2-((1S,2S,5R)-1-hydroxy-2-isopropyl-5-methylcyclohexane-1-carboxamido)-1-phenylethyl acetate]
EC50 (human TRPM8 [1]): 0.0368 µM | EC50 (pig TRPM8 [2]): 0.0355 µM | EC50 (human TRPM8 [3]): 1.12 µM | EC50 (pig TRPM8 [4]): 9.91 µM

CC(C)[C@@H]1CC[C@@H](C)C[C@@]1(O)C(=O)NCC(F)c1ccccc1 (stereo partly drawn) [Example 5, (1S,2S,5R)—N-(2-fluoro-2-phenylethyl)-1-hydroxy-2-isopropyl-5-methylcyclohexane-1-carboxamide]
EC50 (human TRPM8 [1]): 0.0013 µM | EC50 (pig TRPM8 [2]): 0.0007 µM | EC50 (human TRPM8 [3]): 0.95 µM | EC50 (pig TRPM8 [4]): 0.478 µM

CC(C)[C@@H]1CC[C@@H](C)C[C@@]1(O)C(=O)NCCc1ccccc1OCCN [Example 6, (1S,2S,5R)—N-(2-(2-aminoethoxy)phenethyl)-1-hydroxy-2-isopropyl-5-methylcyclohexane-1-carboxamide]
EC50 (human TRPM8 [1]): 0.0003 µM | EC50 (pig TRPM8 [2]): 0.0005 µM | EC50 (human TRPM8 [3]): 0.072 µM | EC50 (pig TRPM8 [4]): 0.237 µM

CC(C)[C@@H]1CC[C@@H](C)C[C@@]1(O)C(=O)NCCc1ccccc1OCCO [Example 7, (1S,2S,5R)-1-hydroxy-N-(2-(2-hydroxyethoxy)phenethyl)-2-isopropyl-5-methylcyclohexane-1-carboxamide]
EC50 (human TRPM8 [1]): 0.0085 µM | EC50 (pig TRPM8 [2]): 0.0081 µM | EC50 (human TRPM8 [3]): 2.8 µM | EC50 (pig TRPM8 [4]): 6.19 µM

CC(C)[C@@H]1CC[C@@H](C)C[C@@]1(O)C(=O)NCCc1ccccc1OCC(O)CO (stereo partly drawn) [Example 9, (1S,2S,5R)—N-(2-(2,3-dihydroxypropoxy)phenethyl)-1-hydroxy-2-isopropyl-5-methylcyclohexane-1-carboxamide]
EC50 (human TRPM8 [1]): 0.0088 µM | EC50 (pig TRPM8 [2]): 0.0063 µM | EC50 (human TRPM8 [3]): 2.4 µM | EC50 (pig TRPM8 [4]): 4.1 µM

CC(C)[C@@H]1CC[C@@H](C)C[C@@]1(O)C(=O)NCCc1cccc(OCC(O)CO)c1 (stereo partly drawn) [Example 10, (1S,2S,5R)—N-(3-(2,3-dihydroxypropoxy)phenethyl)-1-hydroxy-2-isopropyl-5-methylcyclohexane-1-carboxamide]
EC50 (human TRPM8 [1]): 0.0214 µM | EC50 (pig TRPM8 [2]): 0.0097 µM | EC50 (human TRPM8 [3]): 4.13 µM | EC50 (pig TRPM8 [4]): 4.8 µM

CC(C)[C@@H]1CC[C@@H](C)C[C@@]1(O)C(=O)NCCc1ccccc1OCC[N+](C)(C)C [Example 11, 2-(2-(2-((1S,2S,5R)-1-hydroxy-2-isopropyl-5-methylcyclohexane-1-carboxamido)ethyl)phenoxy)-N,N,N-trimethylethan-1-aminium iodide]
EC50 (human TRPM8 [1]): 0.148 µM | EC50 (pig TRPM8 [2]): 0.298 µM | EC50 (human TRPM8 [3]): 3.7 µM | EC50 (pig TRPM8 [4]): 4.9 µM

CC(C)[C@@H]1CC[C@@H](C)C[C@@]1(O)C(=O)NCCc1cccc(CO)c1 [Example 15, (1S,2S,5R)-1-hydroxy-N-(3-(hydroxymethyl)phenethyl)-2-isopropyl-5-methylcyclohexane-1-carboxamide]
EC50 (human TRPM8 [1]): 0.003 µM | EC50 (pig TRPM8 [2]): 0.0021 µM | EC50 (human TRPM8 [3]): 1.43 µM | EC50 (pig TRPM8 [4]): 1.51 µM

CC(C)[C@@H]1CC[C@@H](C)C[C@@]1(O)C(=O)NCCc1cccc(C(=O)OCCN)c1 [Example 16, 2-aminoethyl 3-(2-((1S,2S,5R)-1-hydroxy-2-isopropyl-5-methylcyclohexane-1-carboxamido)ethyl) benzoate hydrochloride]
EC50 (human TRPM8 [1]): 0.016 µM | EC50 (pig TRPM8 [2]): 0.013 µM | EC50 (human TRPM8 [3]): 1.29 µM | EC50 (pig TRPM8 [4]): 2.37 µM

COC(=O)[C@@H](N)Cc1ccccc1CCNC(=O)[C@]1(O)C[C@H](C)CC[C@H]1C(C)C [Example 19, methyl (S)-2-amino-3-(2-(2-((1S,2S,5R)-1-hydroxy-2-isopropyl-5-methylcyclohexane-1-carboxamido)ethyl)phenyl)propanoate]
EC50 (human TRPM8 [1]): 0.0071 µM | EC50 (pig TRPM8 [2]): 0.0199 µM | EC50 (human TRPM8 [3]): 1.7 µM | EC50 (pig TRPM8 [4]): 1.52 µM

COC(=O)[C@@H](N)Cc1cccc(CCNC(=O)[C@]2(O)C[C@H](C)CC[C@H]2C(C)C)c1 [Example 20, methyl (S)-2-amino-3-(3-(2-((1S,2S,5R)-1-hydroxy-2-isopropyl-5-methylcyclohexane-1-carboxamido)ethyl)phenyl)propanoate]
EC50 (human TRPM8 [1]): 0.0032 µM | EC50 (pig TRPM8 [2]): 0.0066 µM | EC50 (human TRPM8 [3]): 1.4 µM | EC50 (pig TRPM8 [4]): 1.42 µM

CC(C)[C@@H]1CC[C@@H](C)C[C@@]1(O)C(=O)NCC1(O)CCc2ccccc21 (stereo partly drawn) [Example 23, (1S,2S,5R)-1-hydroxy-N-((1-hydroxy-2,3-dihydro-1H-inden-1-yl)methyl)-2-isopropyl-5-methylcyclohexane-1-carboxamide]
EC50 (human TRPM8 [1]): 0.007 µM | EC50 (pig TRPM8 [2]): 0.006 µM | EC50 (human TRPM8 [3]): 0.5 µM | EC50 (pig TRPM8 [4]): 1.07 µM

CC(C)[C@@H]1CC[C@@H](C)C[C@@]1(O)C(=O)NCCc1ccccc1OC[C@H](O)CO [Example 24, (1S,2S,5R)—N-(2-((R)-2,3-dihydroxypropoxy)phenethyl)-1-hydroxy-2-isopropyl-5-methylcyclohexane-1-carboxamide]
EC50 (human TRPM8 [1]): 0.0078 µM | EC50 (pig TRPM8 [2]): 0.0134 µM | EC50 (human TRPM8 [3]): 2.58 µM | EC50 (pig TRPM8 [4]): 1.7 µM

COC(=O)[C@H](N)COc1cccc(CCNC(=O)[C@]2(O)C[C@H](C)CC[C@H]2C(C)C)c1 [Example 26, methyl O-(3-(2-((1S,2S,5R)-1-hydroxy-2-isopropyl-5-methylcyclohexane-1-carboxamido)ethyl)phenyl)-D-serinate]
EC50 (human TRPM8 [1]): 0.0037 µM | EC50 (pig TRPM8 [2]): 0.0055 µM | EC50 (human TRPM8 [3]): 1.8 µM | EC50 (pig TRPM8 [4]): 1.1 µM

COC(=O)[C@@H](N)COc1cccc(CCNC(=O)[C@]2(O)C[C@H](C)CC[C@H]2C(C)C)c1 [Example 27, methyl O-(3-(2-((1S,2S,5R)-1-hydroxy-2-isopropyl-5-methylcyclohexane-1-carboxamido)ethyl)phenyl)-L-serinate]
EC50 (human TRPM8 [1]): 0.0031 µM | EC50 (pig TRPM8 [2]): 0.0103 µM | EC50 (human TRPM8 [3]): 2.4 µM | EC50 (pig TRPM8 [4]): 4 µM

CCOC(=O)c1cccc(CCNC(=O)[C@]2(O)C[C@H](C)CC[C@H]2C(C)C)c1 [Example 28, ethyl 3-(2-((1S,2S,5R)-1-hydroxy-2-isopropyl-5-methylcyclohexane-1-carboxamido)ethyl)benzoate]
EC50 (human TRPM8 [1]): 0.25 µM | EC50 (pig TRPM8 [2]): 0.311 µM | EC50 (human TRPM8 [3]): 1.44 µM | EC50 (pig TRPM8 [4]): 5.4 µM

CC(C)[C@@H]1CC[C@@H](C)C[C@@]1(O)C(=O)NCC(O)c1cccc(O)c1 (stereo partly drawn) [Example 32, (1S,2S,5R)-1-hydroxy-N-(2-hydroxy-2-(3-hydroxyphenyl)ethyl)-2-isopropyl-5-methylcyclohexane-1-carboxamide]
EC50 (human TRPM8 [1]): 0.003 µM | EC50 (pig TRPM8 [2]): 0.003 µM | EC50 (human TRPM8 [3]): 1.23 µM | EC50 (pig TRPM8 [4]): 0.507 µM

COC(=O)COc1cccc(C(O)CNC(=O)[C@]2(O)C[C@H](C)CC[C@H]2C(C)C)c1 (stereo partly drawn) [Example 33, methyl 2-(3-(1-hydroxy-2-((1S,2S,5R)-1-hydroxy-2-isopropyl-5-methylcyclohexane-1-carboxamido)ethyl)phenoxy)acetate]
EC50 (human TRPM8 [1]): 0.065 µM | EC50 (pig TRPM8 [2]): 0.038 µM | EC50 (human TRPM8 [3]): 4.2 µM | EC50 (pig TRPM8 [4]): 4.31 µM
